Measurements as given in paper PMC6821791, “Phase I Trial of Pyragrel, a Novel Thromboxane Synthetase Inhibitor, to Evaluate the Safety, Tolerability, and Pharmacokinetics in Healthy Volunteers” (Frontiers in Pharmacology, 2019).
Where “and” joins values, the source holds several entries; their conditions need not be identical. Identical values can stand only once.

What was measured:
[1] = test system: urinary 11-D-HTXB2 (indicator of TXA2 production); experiment: Urinary 11-D-HTXB2 production by ELISA (Part IV); format: in vivo, human; conditions: for Urinary 11-D-HTXB2 (standardized by urine creatinine): Part IV
Description: […] […] Production of 11-dehydro-thrombxane B2 (11-D-HTXB2) in urine sample was detected by ELISA method.
(§1) The vital signs were analyzed by repeated measures analysis of variance (ANOVA), and laboratory indexes were analyzed by the paired t-test and one-way ANOVA. Comparison within different dose regimens of pyragrel or among different treatments (pyragrel, ozagrel, and placebo) or production of urinary 11-D-HTXB2 among groups was performed with the t-test, and expected values were considered along with the actual situation. Descriptive methods were used to compare the incidence of AE between pyragrel and ozagrel/placebo or in different pyragrel dose regimens; the normal/abnormal changes in laboratory examinations before and after administration were described.
Given that 11-dehydrothromboxane B2 (11-D-HTXB2) is considered a reliable indicator of TXA2 production in humans and several animal models ([Morio et al., 1993]; [Yamanaka et al., 1993]), we preliminarily measured the production of urinary 11-D-HTXB2 as a maker for evaluating the TXA2 inhibition activity of pyragrel in three dose groups (60, 120, or 240 mg) in Part IV. […] ( Table 9 ).

[2] = Safety assessment, adverse event monitoring (Parts I-V); format: in vivo, human
Description: Safety was assessed using subject interviews and adverse event (AE) monitoring. All subjects received laboratory examinations after termination of drug infusion for 48 or 72 h; the examination items are the same as those listed in the screening process. If clinical abnormalities were present, further follow-ups were required until the laboratory test values or vital sign levels of the abnormal items returned to normal values or stable levels. The clinical significance of abnormal laboratory test values was determined by the physicians.
as §1

[3] = test system: platelet agglutination inducted by adenosine diphosphate (ADP) and arachidonic acid (AA); experiment: Platelet agglutination inducted by ADP and AA (Part IV); format: in vivo, human; conditions: single 3 h infusion of pyragrel 60, 120 or 240 mg, data not shown
Description: (§2) Urinary levels of 11-D-HTXB2, the degree of platelet agglutination inhibition (DPAI), and the plasma levels of TXB2 and 6-keto-PG1α are considered effective indicators to confirm the antithrombotic effect of a drug candidate ([Uyama et al., 1985]; [Morio et al., 1993]). Therefore, we determined the inhibitory effect of pyragrel on all these three markers in Part IV after a single 3 h infusion dose of pyragrel (60, 120, or 240 mg). […] Similarly, the plasma levels of TXB2 and 6-keto-PG1α (stable metabolites of TXA2 and PGI2, respectively) were determined by ELISA since the decreased TXB2/6-keto- PG1α ratio indicates platelet aggregation and thrombosis inhibition ([Mizugaki et al., 1999]). […] Actually, levels of plasma TXB2 and 6-keto-PG1α are different between patients with cerebral ischemic and healthy subjects; with the limitation of small size for pharmacodynamic activity evaluation in the study, plus the significant reduction in urinary 11-D-HTXB2 level here, we recommended that a larger sample size, extensive phase II study should be performed in patients to further study the pharmacodynamic characteristic of pyragrel.

[4] = test system: plasma TXB2 and 6-keto-PG1α; experiment: Plasma TXB2 and 6-keto-PG1α by ELISA (Part IV); format: in vivo, human; conditions: pyragrel 60, 120, 240 mg single i.v. dose; data not shown
Description: as §2

focal cerebral ischemia = conditions: cited from earlier work
[5] = Part II, pyragrel 240 mg in 250 ml saline
[6] = Part III, multiple doses of pyragrel 180 mg
[7] = Part IV, pyragrel 60, 120, 240 mg crossover
[8] = Part V, pyragrel 360 mg in 24 h

COc1cc(C=CC(=O)[O-])ccc1OCc1nc(C)c(C)nc1C.[Na+] [Pyragrel, sodium pyragrel]
Duration of the inhibitory effect on 11-D-HTXB2 production ([1]; 120- and 240-mg group, P<0.05 vs preadministration): at least 12 h | Urinary 11-D-HTXB2 (standardized by urine creatinine) ([1]; 60 mg/kg group, 0–3 h after administration): 37.83 ± 4.85 pg/mL | Urinary 11-D-HTXB2 (standardized by urine creatinine) ([1]; 60 mg/kg group, 3–4 h after administration): 36.64 ± 4.15 pg/mL | Urinary 11-D-HTXB2 (standardized by urine creatinine) ([1]; 60 mg/kg group, 4–8 h after administration): 35.05 ± 4.51 pg/mL | Urinary 11-D-HTXB2 (standardized by urine creatinine) ([1]; 60 mg/kg group, 8–12 h after administration, 60 mg/kg): 34.77 pg/mL and 34.77 ± 4.16 pg/mL | Urinary 11-D-HTXB2 (standardized by urine creatinine) ([1]; 60 mg/kg group, 12–24 h after administration, 60 mg/kg): 35.17 pg/mL and 35.17 ± 4.63 pg/mL | Urinary 11-D-HTXB2 (standardized by urine creatinine) ([1]; 120 mg/kg group, 0–3 h after administration): 37.06 ± 5.00 pg/mL | Urinary 11-D-HTXB2 (standardized by urine creatinine) ([1]; 120 mg/kg group, 3–4 h after administration): 35.85 ± 4.40 pg/mL | Urinary 11-D-HTXB2 (standardized by urine creatinine) ([1]; 120 mg/kg group, 4–8 h after administration): 33.03 ± 5.00 pg/mL | Urinary 11-D-HTXB2 (standardized by urine creatinine) ([1]; 120 mg/kg group, 8–12 h after administration): 31.45 ± 4.88 pg/mL | Urinary 11-D-HTXB2 (standardized by urine creatinine) ([1]; 120 mg/kg group, 12–24 h after administration): 32.14 ± 5.17 pg/mL | Urinary 11-D-HTXB2 (standardized by urine creatinine) ([1]; 240 mg group, 0–3 h after administration): 36.40 ± 4.68 pg/mL | Urinary 11-D-HTXB2 (standardized by urine creatinine) ([1]; 240 mg group, 3–4 h after administration): 35.37 ± 4.60 pg/mL | Urinary 11-D-HTXB2 (standardized by urine creatinine) ([1]; 240 mg group, 4–8 h after administration): 33.10 ± 4.31 pg/mL | Urinary 11-D-HTXB2 (standardized by urine creatinine) ([1]; 240 mg group, 8–12 h after administration, 240 mg/kg): 30.72 pg/mL and 30.72 ± 4.38 pg/mL | Urinary 11-D-HTXB2 (standardized by urine creatinine) ([1]; 240 mg group, 12–24 h after administration, 240 mg/kg): 31.37 pg/mL and 31.37 ± 3.79 pg/mL | Production of urinary 11-D-HTXB2, effect in words ([1]; single infusion of pyragrel 60, 120 or 240 mg): time- and dose-dependently inhibited | AE incidence rate (IR) ([2]; Part I, 36 pyragrel-treated subjects, 8 subjects of ozagrel treatment): 33.3% | AE Type ([2]; Part I, pyragrel 30 mg): DB elevation, palpitation | Number of AEs ([2]; Part I, pyragrel 30 mg): 2 | AE Type ([2]; Part I, pyragrel 60 mg): Leucocytes increase, positive urine protein | Number of AEs ([2]; Part I, pyragrel 60 mg): 2 | AE Type ([2]; Part I, pyragrel 120 mg): DB elevation | Number of AEs ([2]; Part I, pyragrel 120 mg): 1 | AE Type ([2]; Part I, pyragrel 180 mg): DB elevation (2), ventosity | Number of AEs ([2]; Part I, pyragrel 180 mg): 3 | AE Type ([2]; Part I, pyragrel 240 mg): APTT extension | Number of AEs ([2]; Part I, pyragrel 240 mg): 2 | AE Type ([2]; Part I, pyragrel 300 mg): Lower hemoglobin, total bile acid increase | Number of AEs ([2]; Part I, pyragrel 300 mg): 2 | AE Type [2, 5]: DB/TB elevation | Number of AEs [2, 5]: 2 | AE incidence rate (IR) ([2]; Part II, pyragrel 240 mg in 250 ml saline, 2/4): 50% | AE Type [2, 6]: DB/TB elevation, alanine aminotransferase elevated, abdominal pain, headache, low blood potassium, urine frequency, fecal OBT+. | Number of AEs [2, 6]: 12 | AE Type [2, 7]: Dizziness, TB/DB elevation, transient left tinnitus, double upper arm papules, fatigue | Number of AEs [2, 7]: 8 | AE incidence ([2]; Part V, continuous infusion, 1/4): 25.0% | AE Type [2, 8]: DB elevation | Number of AEs [2, 8]: 1 | Severe AEs, in words ([2]; Parts I-V): No severe AEs occurred | Number of AEs ([2]; Total, Parts I-V): 35 | Incidence of elevation in conjugated bilirubin (DB elevation) ([2]; all parts, 12/68 subjects of pyragrel, 2/8 subjects of ozagrel): 17.6% | Tolerability, in words ([2]; single i.v. infusion up to 300 mg, multiple dose 180 mg, prolonged infusion 360 mg within 24 h): well tolerated | Platelet agglutination inducted by ADP and AA [3]: slightly inhibited | Plasma 6-keto-PG1α [4]: increase | Plasma TXB2 [4]: decreased | Effect against focal cerebral ischemic injury and focal cerebral ischemia-reperfusion (focal cerebral ischemia; rat models of focal cerebral ischemia, ref Wang and Wu, 2014): markedly protective effects | Nerve function (focal cerebral ischemia; rats with focal cerebral ischemia-reperfusion injury, continuous infusion of pyragrel for 7 days): significant improvements
